The text below walks through data of patent US6784181B2, “Piperazine-containing compounds useful in the treatment of pain” (AstraZeneca AB, priority 1999, dated 2004).

Data set [1] can be described thus: Metabolic stability RLM (% remaining). Format: in vitro ADME, rat.
Data set [2] has as its target T1, cloned human δ receptors (HDELTA) (Homo sapiens, UniProt P41143).
T1 construct: expressed in transfected cells; host or cells: human 293S cells (geneticin-selected), membranes
The data set can be described thus: Binding assay, membranes of 293S cells expressing cloned human δ receptor.

In data set [3] the target is MOUSE BRAIN (Mus musculus, UniProt P32300). The data set can be described thus: Functional agonism mouse brain (EC50, % EMAX). Format: biochemical.
MOUSE BRAIN, sequence (P32300 whole entry): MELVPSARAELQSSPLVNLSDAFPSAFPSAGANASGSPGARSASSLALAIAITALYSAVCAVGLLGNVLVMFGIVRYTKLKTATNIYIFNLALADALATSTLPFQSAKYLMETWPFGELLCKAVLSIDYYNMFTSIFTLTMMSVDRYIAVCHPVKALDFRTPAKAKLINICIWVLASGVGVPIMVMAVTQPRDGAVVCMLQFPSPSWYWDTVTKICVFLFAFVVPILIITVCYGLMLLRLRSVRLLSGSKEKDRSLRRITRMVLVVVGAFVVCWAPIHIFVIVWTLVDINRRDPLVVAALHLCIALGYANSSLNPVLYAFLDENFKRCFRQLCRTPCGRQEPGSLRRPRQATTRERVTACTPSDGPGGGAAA
A short description of data set [4]: Metabolic stability MLM (% remaining). The class given is in vitro ADME, mouse.
Data set [5] concerns the target T2, HDELTA (Homo sapiens, UniProt P41143).
T2 construct: expressed in transfected cells
The data set can be described thus: Functional agonism HDELTA (EC50, % EMAX). The class given is biochemical.

Data set [6] concerns the target RAT BRAIN (Rattus norvegicus, UniProt P33533). The data set is described as follows: Functional agonism rat brain (EC50, % EMAX). Format: biochemical.
Setting [7] is: displacement of radioligand, human δ receptor membranes, read-out: HDELTA.

Molecules are shown by their SMILES. Where a name gives a salt, the structure may show the parent alone. Read-outs that look alike come from different tables or passages of the source.

T2 sequence (P41143 whole entry): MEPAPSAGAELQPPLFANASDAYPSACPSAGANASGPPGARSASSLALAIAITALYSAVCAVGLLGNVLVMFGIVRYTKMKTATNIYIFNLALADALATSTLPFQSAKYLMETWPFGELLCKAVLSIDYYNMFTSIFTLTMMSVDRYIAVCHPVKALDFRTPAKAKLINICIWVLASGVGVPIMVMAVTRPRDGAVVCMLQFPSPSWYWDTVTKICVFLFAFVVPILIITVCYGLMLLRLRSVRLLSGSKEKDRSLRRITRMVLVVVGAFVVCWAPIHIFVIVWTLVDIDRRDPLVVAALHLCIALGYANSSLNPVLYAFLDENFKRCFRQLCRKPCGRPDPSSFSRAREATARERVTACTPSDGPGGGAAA
T1 sequence (P41143 whole entry): as above
RAT BRAIN, sequence (P33533 whole entry): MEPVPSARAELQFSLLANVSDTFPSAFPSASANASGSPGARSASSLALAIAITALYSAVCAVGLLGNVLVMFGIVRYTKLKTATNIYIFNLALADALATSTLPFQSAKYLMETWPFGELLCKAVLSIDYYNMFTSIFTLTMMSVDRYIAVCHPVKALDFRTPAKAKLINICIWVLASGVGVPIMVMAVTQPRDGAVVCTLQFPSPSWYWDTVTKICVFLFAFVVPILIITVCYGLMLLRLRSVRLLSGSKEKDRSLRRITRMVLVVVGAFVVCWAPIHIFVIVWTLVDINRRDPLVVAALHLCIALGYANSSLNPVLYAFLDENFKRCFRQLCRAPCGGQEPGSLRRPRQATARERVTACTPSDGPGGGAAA

For orientation: Emax means the greatest response seen or fitted, relative to the assay's reference. On to `CCN(CC)C(=O)c1ccc(C(c2cccc3cccnc23)N2CCN(Cc3ccccn3)CC2)cc1` (stereo not drawn) [Example 12, N,N-diethyl-4-[[4-(2-pyridinylmethyl)-1-piperazinyl](8-quinolinyl)methyl]benzamide Dihydrochloride], for which, in data set [1], the “RLM 10000 % rem.” value is listed as 21.5 % rem and the “RLM 100000 % rem.” value was determined as 66 % rem. In data set [2], this compound came in with an IC50 of 0.692 nM. For the same compound, the Emax in data set [3] was determined as 91.3%. In addition, in data set [4], the “MLM 10000 % rem.” value stood at 0 % rem and the “MLM 100000 % rem.” value is recorded as 53.5 % rem. Also, in data set [5], the EC50 stood at 0.76 nM and the maximum response (Emax) turned out to be 97.7%. Further, in data set [6], the Emax is 106%.
Regarding `CCN(CC)C(=O)c1ccc(C(c2cccc3cccnc23)N2CCN(Cc3ccsc3)CC2)cc1` (stereo not drawn) [Example 13, N,N-diethyl-4-[[4-(3-thienylmethyl)-1-piperazinyl](8-quinolinyl)methyl]benzamide], in data set [1], the “RLM 10000 % rem.” value is 10 % rem and the “RLM 100000 % rem.” value worked out at 62.667 % rem. In data set [2], this compound displayed an IC50 of 1.03 nM. For the same compound, the Emax in data set [3] turned out to be 113%. Besides, in data set [4], the “MLM 10000 % rem.” value worked out at 1.667 % rem and the “MLM 100000 % rem.” value was found to be 71.667 % rem. In data set [5], the EC50 was determined as 1.44 nM and the Emax was 101%. Also, in data set [6], the Emax came out at 112%.
As to `CCN(CC)C(=O)c1ccc(C(c2cccc3cccnc23)N2CCN(Cc3ccco3)CC2)cc1` (stereo not drawn) [Example 14, N,N-diethyl-4-[[4-(2-furanylmethyl)-1-piperazinyl](8-quinolinyl)methyl]benzamide], in data set [1], the “RLM 10000 % rem.” value was found to be 13.5 % rem and the “RLM 100000 % rem.” value was found to be 84.5 % rem. In addition, the IC50 in data set [2] stood at 0.181 nM. This compound also showed an Emax in data set [3] of 106%. Besides, in data set [4], the “MLM 10000 % rem.” value came to 0 % rem and the “MLM 100000 % rem.” value amounted to 49 % rem. In data set [5], this compound gave an EC50 of 0.76 nM and an Emax of 88.7%. In addition, the Emax in data set [6] was 102%.
For the compound `CCN(CC)C(=O)c1ccc(C(c2cccc3cccnc23)N2CCN(Cc3ccoc3)CC2)cc1` (stereo not drawn) [Example 15, N,N-diethyl-4-[[4-(3-furanylmethyl)-1-piperazinyl](8-quinolinyl)methyl]benzamide], in data set [1], the “RLM 10000 % rem.” value is recorded as 10 % rem and the “RLM 100000 % rem.” value was found to be 86 % rem. For the same compound, in data set [2], the IC50 amounted to 0.787 nM. For the same compound, the Emax in data set [3] is 110%. In data set [4], the “MLM 10000 % rem.” value turned out to be 0 % rem and the “MLM 100000 % rem.” value is given as 68 % rem. Besides, in data set [5], the EC50 came to 0.79 nM and the Emax came out at 89%. In data set [6], the maximum response (Emax) came to 109%.
With `CCN(CC)C(=O)c1ccc(C(c2cccc3cccnc23)N2CCN(Cc3cccs3)CC2)cc1.Cl.Cl` (stereo not drawn) [Example 16, N,N-diethyl-4-[[4-(2-thiophenylmethyl)-1-piperazinyl](8-quinolinyl)methyl]benzamide Dihydrochloride], in data set [1], the “RLM 10000 % rem.” value stood at 9.5 % rem and the “RLM 100000 % rem.” value is given as 64.5 % rem. Moreover, the IC50 in data set [2] came to 1.51 nM. In data set [3], this compound yielded a maximal effect (Emax) of 98.4%. Also, in data set [4], the “MLM 10000 % rem.” value stood at 0.5 % rem and the “MLM 100000 % rem.” value is reported as 46.5 % rem. In data set [5], this compound showed an EC50 of 2.39 nM and an Emax of 99.4%. The compound also yielded a maximal effect (Emax) in data set [6] of 100%.
For the compound `CCN(CC)C(=O)c1ccc(C(c2cccc3cccnc23)N2CCN(Cc3ncc[nH]3)CC2)cc1.Cl.Cl` (stereo not drawn) [Example 17, N,N-diethyl-4-[[4-(2-imidazolylmethyl)-1-piperazinyl](8-quinolinyl)methyl]benzamide Dihydrochloride], in data set [1], the “RLM 10000 % rem.” value was 5.5 % rem and the “RLM 100000 % rem.” value was determined as 75 % rem. For the same compound, the IC50 in data set [2] worked out at 1.09 nM. Also, in data set [3], the Emax was determined as 92.5%. Besides, in data set [4], the “MLM 10000 % rem.” value was found to be 0 % rem and the “MLM 100000 % rem.” value is reported as 21.5 % rem. In data set [5], the EC50 came out at 3.03 nM and the Emax was 95.7%. For the same compound, the Emax in data set [6] came to 106%.
On to `CCN(CC)C(=O)c1ccc(C(c2cccc3cccnc23)N2CCN(Cc3c[nH]cn3)CC2)cc1` (stereo not drawn) [Example 18, N,N-diethyl-4-[[4-(4-imidazolylmethyl)-1-piperazinyl](8-quinolinyl)methyl]benzamide Dihydrochloride], for which the IC50 in data set [2] (setting [7]) is 1.54 nM. Further, the figures for the Emax in data set [3], in data set [5] and in data set [6] were 108%, 93.8% and 111%, respectively. In data set [5] (read-out: HDELTA EC50), the EC50 came out at 5.85 nM.
For the compound `CCN(CC)C(=O)c1ccc(C(c2cccc3cccnc23)N2CCN(Cc3nc[nH]n3)CC2)cc1.Cl.Cl` (stereo not drawn) [Example 19, N,N-diethyl-4-[[4-(3-triazolylmethyl)-1-piperazinyl](8-quinolinyl)methyl]benzamide Dihydrochloride], the IC50 in data set [2] (setting [7]) was 18.8 nM. Further, in data set [3], the EC50 turned out to be 1370 nM and the “MOUSE BRAIN % EMAX” value is 48.68%. Also, in data set [5], the “HDELTA % EMAX” value is reported as 97.88%. Besides, the EC50 in data set [5] (read-out: HDELTA EC50) came out at 85.2 nM. Moreover, in data set [6], the EC50 worked out at 2810 nM and the “RAT BRAIN % EMAX” value is 56.35%.
